Test results from patent US10798939B2, “Cellulose binding domain chitosan seed coating” (priority 2015, dated 2020).

Tested on: V. radiata
Conditions: AgNO3 0-2 mM bolus doses, day 4 to day 8
Description: For two days beans were allowed to germinate in the dark at 20° C. as described above. On day 3, the plate was incubated at 20° C./12 hr photoperiod and 100% humidity, and 500 μL of distilled water were added to each well. On day 5 another 750 μL of distilled water were added and the cover of the well plate was removed. The EC50 was determined as the concentration at which the change in mass of the seedling was half that of untreated V. radiata.

O=[N+]([O-])[O-].[Ag+] [AgNO3, silver nitrate]
change in mass of V. radiata: decreased significantly in a dose response fashion
